# Like-named read-outs stand apart in the source and are kept apart here.
# What was measured:
# GST-Xa-hAAK1 = target: T1, GST-Xa-hAAK1 (Homo sapiens, UniProt Q2M2I8); test: Caliper assay; type: biochemical; settings: aryl ethers
# T1 construct: made in house
# Experimental: The assays were performed in U-bottom 384-well plates. The final assay volume was 30 μl prepared from 15 μl additions of enzyme and substrates (fluoresceinated peptide (5-FAM)-Aha-[…]-NH2 and ATP) and test compounds in assay buffer (10 mM Tris-HCL pH 7.4, 10 mM MgCl2, 0.01% Tween-20 and 1.0 mM DTT). The reactions were initiated by the combination of bacterially expressed, GST-Xa-hAAK1 with substrates and test compounds. The reactions were incubated at room temperature for 3 hours and terminated by adding 60 μl of 35 mM EDTA buffer to each sample. The reactions were analyzed on the Caliper LabChip 3000 (Caliper, Hopkinton, Mass.) by electrophoretic separation of the fluorescent substrate and phosphorylated product. […] The final concentration of reagents in the assays are ATP, 22 μM; (5-FAM)-Aha-[…]-NH2, 1.5 μM; GST-Xa-hAAK1, 3.5 nM; and DMSO, 1.6%. Dose response curves were generated to determine the concentration required inhibiting 50% of kinase activity (IC50). Compounds were dissolved at 10 mM in dimethylsulfoxide (DMSO) and evaluated at eleven concentrations. IC50 values were derived by non-linear regression analysis.
# [1] = target: T2, AAK1 (full length human) in transfected HEK293F cells (Homo sapiens, UniProt Q2M2I8); test: HEK281 cell-based assay (phospho-mu2 Western blot); settings: read-out: CBA IC50
# T2 construct: expressed in transfected cells; host or cells: HEK293F
# [2] = tested on: formalin-induced paw flinching; test: formalin paw test; type: in vivo; settings: mice
# Experimental: See example 5.4.1, above. The same test was used to confirm that the administration of an AAK1 inhibitor can also affect pain response.
# Mice were tested for nociception with Automatic Nociception Analyzers (purchased from the Ozaki lab at University of California, San Diego). A metal band was placed around the left hind paw of each mouse with superglue 30 minutes prior to testing. After the 30-minute acclimation period, 20 μl of 5% formalin was subcutaneously injected in the dorsal surface of the left hind paw. Mice were individually housed in cylindrical chambers for 45 minutes. Fresh 5% formalin solution was prepared by diluting formaldehyde (Formalde-fresh 20%, Fisher Scientific, Fair Lawn, N.J.) with distilled water. Investigatory compounds were administered 30 minutes prior to formalin injection.
# A computer software recorded flinches per minute, total flinches for Phase I (acute phase=first 8 minutes), and total flinches for Phase II (tonic phase between 20-40 minutes) through an electromagnetic field. See Yaksh T L, Ozaki G, McCumber D, Rathbun M, Svensson C, Malkmus S, Yaksh M C. An automated flinch detecting system for use in the formalin nociceptive bioassay. J Appl Physiol., 2001; 90:2386-402.
# Various compounds of the invention were tested at different doses. Gabapentin and pregabalin were used as positive controls. Results are shown below in Table 2, wherein “*” means an effect equal to or greater than 50 percent of that of gabapentin at 200 mpk, “**” means an effect equal to or greater than 100 percent of that of gabapentin at 200 mpk, “sc” means subcutaneous administration, “ip” means in intraperitoneal administration, and “po” means oral administration.
# [3] = HEK281 cell-based assay, pyrazolo[1,5-a]pyrimidine-based inhibitors
# T1 sequence (Q2M2I8 whole entry): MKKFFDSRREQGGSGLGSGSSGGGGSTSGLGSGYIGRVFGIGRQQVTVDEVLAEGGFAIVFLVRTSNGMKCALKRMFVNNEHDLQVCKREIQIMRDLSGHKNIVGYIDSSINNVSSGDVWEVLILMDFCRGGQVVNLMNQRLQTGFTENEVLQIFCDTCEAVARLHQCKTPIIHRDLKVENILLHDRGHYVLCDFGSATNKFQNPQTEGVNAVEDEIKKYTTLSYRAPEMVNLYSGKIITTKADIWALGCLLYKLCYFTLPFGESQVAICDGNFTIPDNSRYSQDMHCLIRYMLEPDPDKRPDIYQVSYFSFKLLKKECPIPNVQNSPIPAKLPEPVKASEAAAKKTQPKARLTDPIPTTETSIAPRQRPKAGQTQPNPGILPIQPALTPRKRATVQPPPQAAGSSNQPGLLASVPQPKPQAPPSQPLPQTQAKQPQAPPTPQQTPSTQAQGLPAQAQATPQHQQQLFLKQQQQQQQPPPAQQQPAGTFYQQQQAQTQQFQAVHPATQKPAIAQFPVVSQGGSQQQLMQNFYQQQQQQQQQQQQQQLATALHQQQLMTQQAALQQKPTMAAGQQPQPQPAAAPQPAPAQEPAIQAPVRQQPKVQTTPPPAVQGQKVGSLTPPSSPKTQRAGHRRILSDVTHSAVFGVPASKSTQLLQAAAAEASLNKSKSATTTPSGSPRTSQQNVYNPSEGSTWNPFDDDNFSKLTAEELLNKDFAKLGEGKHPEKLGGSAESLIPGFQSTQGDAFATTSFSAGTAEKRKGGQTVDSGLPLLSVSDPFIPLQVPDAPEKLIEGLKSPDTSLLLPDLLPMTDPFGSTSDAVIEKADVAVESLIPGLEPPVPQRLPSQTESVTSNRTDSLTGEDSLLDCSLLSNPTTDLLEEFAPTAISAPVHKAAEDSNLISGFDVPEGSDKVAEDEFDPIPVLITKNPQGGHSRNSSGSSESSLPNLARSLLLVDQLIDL
# T2 sequence (Q2M2I8 1-863 isoform Q2M2I8-2): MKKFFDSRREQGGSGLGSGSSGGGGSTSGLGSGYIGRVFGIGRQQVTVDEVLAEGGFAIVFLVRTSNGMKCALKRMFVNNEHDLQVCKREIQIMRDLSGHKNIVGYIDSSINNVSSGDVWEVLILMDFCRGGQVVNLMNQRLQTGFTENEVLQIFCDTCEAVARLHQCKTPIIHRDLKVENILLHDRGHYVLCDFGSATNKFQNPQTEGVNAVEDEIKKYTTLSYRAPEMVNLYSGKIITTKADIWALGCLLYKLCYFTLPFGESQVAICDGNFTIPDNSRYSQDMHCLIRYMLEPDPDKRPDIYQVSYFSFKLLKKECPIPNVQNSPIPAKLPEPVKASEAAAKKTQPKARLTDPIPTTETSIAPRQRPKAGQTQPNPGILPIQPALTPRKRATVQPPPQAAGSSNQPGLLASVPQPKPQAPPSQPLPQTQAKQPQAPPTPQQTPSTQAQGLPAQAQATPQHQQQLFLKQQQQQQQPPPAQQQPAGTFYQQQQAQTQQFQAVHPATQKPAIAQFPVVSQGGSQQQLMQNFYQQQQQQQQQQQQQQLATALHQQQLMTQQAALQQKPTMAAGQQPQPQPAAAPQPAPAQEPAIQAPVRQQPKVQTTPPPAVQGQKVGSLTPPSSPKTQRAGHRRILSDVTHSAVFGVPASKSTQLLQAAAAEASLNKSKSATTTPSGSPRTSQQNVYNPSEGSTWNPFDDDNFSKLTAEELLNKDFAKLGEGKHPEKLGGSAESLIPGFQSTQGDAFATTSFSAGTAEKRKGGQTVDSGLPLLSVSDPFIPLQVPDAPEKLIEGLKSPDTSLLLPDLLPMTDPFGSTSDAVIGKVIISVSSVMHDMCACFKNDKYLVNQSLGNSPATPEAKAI
structure (smiles),measurement,setting,value
N[C@@H](COc1ccc2c(c1)OCc1cnccc1-2)Cc1ccccc1,IC50,GST-Xa-hAAK1; numeric values,293 nM
CC(C)C[C@@H](N)COc1ccc2c(c1)OC(C)c1cnccc1-2 (stereo partly shown),IC50,"[1]; aryl ethers, numeric values",> 300 nM
same,IC50,GST-Xa-hAAK1; class symbols,10 to 100 nM
CCc1cc2c(cc1OC[C@@H](N)CC(C)C)OC(CC)c1cnccc1-2 (stereo partly shown),IC50,"[1]; aryl ethers, numeric values",18 nM
same,IC50,GST-Xa-hAAK1; class symbols,10 to 100 nM
CCC1Oc2cc(OC[C@@H](N)CC(C)C)ccc2-c2ccncc21 (stereo partly shown),IC50,"[1]; aryl ethers, numeric values",56 nM
same,IC50,GST-Xa-hAAK1; numeric values,12 nM
CC(C)C[C@H](N)COc1ccc2c(c1)OCc1cnc(N)cc1-2,IC50,"[1]; aryl ethers, class symbols",1 to 10 nM
same,IC50,GST-Xa-hAAK1; class symbols,1 to 10 nM
CC(C)C[C@H](N)COc1cc2c(cc1Br)-c1ccncc1CO2,IC50,"[1]; aryl ethers, numeric values",2.5 nM
same,IC50,GST-Xa-hAAK1; numeric values,0.86 nM
"COc1ncccc1-c1cnc2ccc(N3CC[C@H](N(C)C(=O)OC(C)C)C3)nn12 [(S)-isopropyl (1-(3-(2-methoxypyridin-3-yl)imidazo[1,2-b]pyridazin-6-yl)pyrrolidin-3-yl)(methyl)carbamate]",Effect,[2]; 10 mpk po,* (an effect equal to or greater than 50% of that of gabapentin at 200 mpk)
same,Effect,[2]; 30 mpk po,** (an effect equal to or greater than 100% of that of gabapentin at 200 mpk)
same,Effect,[2]; 60 mpk po,** (an effect equal to or greater than 100% of that of gabapentin at 200 mpk)
"COc1ccccc1-c1cnn2ccc(NC[C@@H]3CCCN3C(=O)OC(C)(C)C)nc12 [(S)-tert-butyl 2-(((3-(2-methoxyphenyl)pyrazolo[1,5-a]pyrimidin-5-yl)amino)methyl)pyrrolidine-1-carboxylate]",IC50,[1]; [3],≤ 10 nM
same,Effect,[2]; 10 mpk sc,* (an effect equal to or greater than 50% of that of gabapentin at 200 mpk)
same,Effect,[2]; 60 mpk sc,* (an effect equal to or greater than 50% of that of gabapentin at 200 mpk)
"CC(C)(C)OC(=O)N1CCC[C@H]1CNc1ccc2ncc(-c3ccc(CN)cc3)n2n1 [(S)-tert-butyl 2-(((3-(4-(aminomethyl)phenyl)imidazo[1,2-b]pyridazin-6-yl)amino)methyl)pyrrolidine-1-carboxylate]",Effect,[2]; 60 mpk sc,** (an effect equal to or greater than 100% of that of gabapentin at 200 mpk)
"CC(C)(C)OC(=O)N1CCC[C@H]1CNc1ccn2ncc(-c3ccncc3)c2n1 [(S)-tert-butyl 2-(((3-(pyridin-4-yl)pyrazolo[1,5-a]pyrimidin-5-yl)amino)methyl)pyrrolidine-1-carboxylate]",IC50,[1]; [3],≤ 10 nM
same,Effect,[2]; 30 mpk sc,** (an effect equal to or greater than 100% of that of gabapentin at 200 mpk)
"CC(C)(C)OC(=O)N1CCC[C@H]1CNc1ccc2ncc(Br)n2n1 [(S)-tert-butyl 2-(((3-bromoimidazo[1,2-b]pyridazin-6-yl)amino)methyl)pyrrolidine-1-carboxylate]",Effect,[2]; 30 mpk sc,** (an effect equal to or greater than 100% of that of gabapentin at 200 mpk)
same,Effect,[2]; 60 mpk sc,** (an effect equal to or greater than 100% of that of gabapentin at 200 mpk)
"NCC1(CC(=O)O)CCCCC1 [Gabapentin, reference compound]",Effect,[2]; 50 mpk sc,* (an effect equal to or greater than 50% of that of gabapentin at 200 mpk)
same,Effect,[2]; 200 mpk sc,** (an effect equal to or greater than 100% of that of gabapentin at 200 mpk)
"CCCCNc1ccc2ncc(-c3ccc(C(=O)NCCN)cc3)n2n1 [N-(2-aminoethyl)-4-(6-(butylamino)imidazo[1,2-b]pyridazin-3-yl)benzamide]",Effect,[2]; 30 mpk ip,** (an effect equal to or greater than 100% of that of gabapentin at 200 mpk)
"CC(C)C[C@H](CN)CC(=O)O [Pregabalin, reference compound]",Effect,[2]; 50 mpk sc,* (an effect equal to or greater than 50% of that of gabapentin at 200 mpk)
CC(C)C[C@@H](N)COc1ccc2c(c1)OCc1cnccc1-2 [drawing 25],IC50,GST-Xa-hAAK1; class symbols,10 to 100 nM
CC(C)C[C@H](N)COc1ccc2c(c1)OC(C)c1cnccc1-2 (stereo partly shown) [drawing 30],IC50,GST-Xa-hAAK1; numeric values,4.9 nM
CC(C)C[C@H](N)COc1ccc2c(c1)OC(C)c1cnccc1-2 (stereo partly shown) [drawing 31],IC50,"[1]; aryl ethers, numeric values",25 nM
same,IC50,GST-Xa-hAAK1; class symbols,10 to 100 nM
CC(C)C[C@H](N)COc1ccc2c(c1)OC(C1CC1)c1cnccc1-2 (stereo partly shown) [drawing 36],IC50,GST-Xa-hAAK1; class symbols,100 to 1000 nM
CC(C)C[C@H](N)COc1ccc2c(c1)OC(C1CC1)c1cnccc1-2 (stereo partly shown) [drawing 37],IC50,"[1]; aryl ethers, numeric values",18 nM
same,IC50,GST-Xa-hAAK1; class symbols,1 to 10 nM
"COc1ccccc1-c1cnc2ccc(N3CCN(C(=O)OC(C)C)CC3)nn12 [isopropyl 4-(3-(2-methoxyphenyl)imidazo[1,2-b]pyridazin-6-yl)piperazine-1-carboxylate]",Effect,[2]; 30 mpk sc,** (an effect equal to or greater than 100% of that of gabapentin at 200 mpk)
same,Effect,[2]; 60 mpk sc,** (an effect equal to or greater than 100% of that of gabapentin at 200 mpk)
"COc1ccccc1-c1cnn2ccc(N3CCN(C(=O)OC(C)C)CC3)nc12 [isopropyl 4-(3-(2-methoxyphenyl)pyrazolo[1,5-a]pyrimidin-5-yl)piperazine-1-carboxylate]",Effect,[2]; 30 mpk sc,** (an effect equal to or greater than 100% of that of gabapentin at 200 mpk)
"COc1ncccc1-c1cnn2ccc(N3CCN(C(=O)OC(C)C)CC3)nc12 [isopropyl 4-(3-(2-methoxypyridin-3-yl)pyrazolo[1,5-a]pyrimidin-5-yl)piperazine-1-carboxylate]",Effect,[2]; 10 mpk po,* (an effect equal to or greater than 50% of that of gabapentin at 200 mpk)
same,Effect,[2]; 30 mpk po,** (an effect equal to or greater than 100% of that of gabapentin at 200 mpk)
"CN(CCNc1ccc2ncc(-c3ccc(C(N)=O)cc3)n2n1)C(=O)OC(C)(C)C [tert-butyl (2-((3-(4-carbamoylphenyl)imidazo[1,2-b]pyridazin-6-yl)amino)ethyl)(methyl)carbamate]",Effect,[2]; 60 mpk sc,** (an effect equal to or greater than 100% of that of gabapentin at 200 mpk)
same,Effect,[2]; 100 mpk po,** (an effect equal to or greater than 100% of that of gabapentin at 200 mpk)
